Results on one molecule are retold here after patent publication US20070148184A1, “Survivin-derived peptides and use thereof” (priority 2003, published 2007).

Data set [1] deals with stage 1V melanoma patients. Kind of data set: Vaccination of melanoma patients with peptide pulsed dendritic cells. The conditions noted are these: human, in vivo. An excerpt: All clinical procedures were in accordance with the Declaration of Helsinki and all patients provided informed consent prior to therapy. Stage 1V cutaneous or uveal melanoma patients were eligible when their disease was progressive despite at least two different chemo-, immuno, or chemoimmunotherapies. […] Important exclusion criteria were evidence of CNS metastases, active autoimmune or infectious diseases, pregnancy and lactation, as well as significant psychiatric abnormality. Peptide pulsed dendritic cells were generated as previously described (82). Briefly, PBMCs from leukapheresis were isolated on LymphoprepTM (Nycomed Pharma), frozen in aliquots and stored in liquid nitrogen. One week prior to vaccination, PBMCs were thawed, washed and cultured in medium containing gentamycin, glutamine and heat inactivated autologous plasma. On day 1 and 5, IL-4 and GM-CSF were added. To differentiate mature DCs, […] and prostaglandin E2 were added on day 6. […] Immunological responses were monitored by the ELISPOT assay, using PBMCs obtained every three months, to detect survivin96-104 specific IFN-γ release. […] The reaction was terminated upon the appearance of dark purple spots, which were quantitated using the AlphaImager System (Alpha Innotech, San Leandro, Calif., USA).

The target in another data set is T1, HLA-A2 (Homo sapiens, UniProt P04439, D140Y/D185E/D98H/E176V/E277Q/G131W/G231S/I119V/I121R/I166T/I218V/L300P/L318F/N151K/N90K/P208A/P217A/Q86G/Q94H/R138H/R169H/T345S).
T1 construct: stabilization of the class I molecules after loading of peptide to the peptide transporter deficient cell line T2; endogenous in cells; host or cells: T2 (TAP-deficient human hybrid cell line), metabolically labelled lysate
The data set is described as follows: Assembly assay for peptide binding to class I MHC, HLA-A2. The conditions noted are these: Example 1, Table 1; read-out: C50 (peptide concentration for half maximal binding to HLA-A2). The procedure: This assembly assay is carried out as described previously (12,13), and it is based on stabilisation of the HLA molecule after loading of peptide to the peptide transporter deficient cell line T2. Subsequently, correctly folded stable HLA heavy chains are immunoprecipitated using conformation dependent antibodies and the peptide binding is quantitated.
Assembly assays for binding of the synthetic peptides to class I MHC molecules metabolically labeled with [35S]-methionine were carried out as described (12,13). The assembly assay is based on stabilization of the class I molecules after loading of peptide to the peptide transporter deficient cell line T2. Subsequently, correctly folded stable MHC heavy chains are immunoprecipitated using conformation-dependent antibodies. After IEF electrophoresis, gels were exposed to phosphoImager screens, and peptide binding was quantified using the Imagequant PhosphorImager program (Molecular Dynamics, Sunnyvale, Calif.).
The binding affinity of synthetic peptides (Invitrogen, Carlsbad, Calif., USA) to HLA-A1, -A2, A3, or -A11 molecules metabolically labeled with [^35S]-methionine was measured in the assembly assay, as described previously (12). The assay is based on peptide-mediated stabilization of empty HLA molecules released upon cell lysis, from the TAP-deficient cell lines. […] MHC heavy chain bands were quantified using the ImageGauge Phosphorimager program (FUJI photo film Co., Carrollton, Tex., USA). The intensity of the band is proportional to the amount of peptide-bound class I MHC complex recovered during the assay. Subsequently, the extent of stabilization of the HLA-molecule is directly related to the binding affinity of the added peptide. The peptide concentration used to analyze the recovery of the HLA-molecules was 40, 4, 0.4, 0.04 μM for HLA-A1 and HLA-A11, and 100, 10, 1, 0.1, 0.01 μM for HLA-A2 and HLA-A3. The C50 value was subsequently calculated for each peptide as the peptide concentration sufficient for half maximal stabilization.

Consider `CSCC[C@H](NC(=O)[C@@H](N)CC(C)C)C(=O)N[C@@H](CC(C)C)C(=O)NCC(=O)N[C@@H](CCC(=O)O)C(=O)N[C@@H](Cc1ccccc1)C(=O)N[C@@H](CC(C)C)C(=O)N[C@@H](CCCCN)C(=O)N[C@@H](CC(C)C)C(=O)O` [Sur1M2], for which, in data set [1], the vaccination associated toxicity entry was “vaccination associated toxicity was not observed”. For the same molecule, the EC50 on HLA-A2 stood at 1000 nM.
